The text below walks through data of US10047098B2, “C5-C6-oxacyclic fused iminopyrimidinone compounds as bace inhibitors, compositions, and their use” (Merck Sharp & Dohme Corp., priority 2014, dated 2018).

By Ki is commonly meant the dissociation constant of the complex between target and ligand, obtained from inhibition or displacement.

The target of experiment [1] is Recombinant human soluble BACE1 catalytic domain (Homo sapiens (Human), UniProt P56817). As to the kind of experiment: BACE1 HTRF FRET Assay. In kind it is biochemical. The settings on record: Ki calculated from IC50 using the Cheng-Prusoff equation; QSY7-APPswe-Eu substrate, pH 5.0; read-out: BACE-1 Ki. The text has this:
Reagents: Na^+-Acetate pH 5.0; 1% Brij-35; Glycerol; Dimethyl Sulfoxide (DMSO); Recombinant human soluble BACE1 catalytic domain (>95% pure); APP Swedish mutant peptide substrate (QSY7-APP^swe-Eu): QSY7-EISEVNLDAEFC-Europium-amide.
A homogeneous time-resolved FRET assay can be used to determine IC50 values for inhibitors of the soluble human BACE1 catalytic domain. This assay monitors the increase of 620 nm fluorescence that resulted from BACE1 cleavage of an APPswedish APP^swe mutant peptide FRET substrate (QSY7-EISEVNLDAEFC-Europium-amide). This substrate contains an N-terminal QSY7 moiety that serves as a quencher of the C-terminal Europium fluorophore (620 nm Em). In the absence of enzyme activity, 620 nm fluorescence is low in the assay and increased linearly over 3 hours in the presence of uninhibited BACE1 enzyme. Inhibition of BACE1 cleavage of the QSY7-APP^swe-Eu substrate by inhibitors is manifested as a suppression of 620 nm fluorescence.
Varying concentrations of inhibitors at 3× the final desired concentration in a volume of 10 ul are preincubated with purified human BACE1 catalytic domain (3 nM in 10 μl) for 30 minutes at 30° C. in reaction buffer containing 20 mM Na-Acetate pH 5.0, 10% glycerol, 0.1% Brij-35 and 7.5% DSMO. Reactions are initiated by addition of 10 μl of 600 nM QSY7-APP^swe-Eu substrate (200 nM final) to give a final reaction volume of 30 μl in a 384 well Nunc HTRF plate. The reactions are incubated at 30° C. for 1.5 hours. The 620 nm fluorescence is then read on a Rubystar HTRF plate reader (BMG Labtechnologies) using a 50 millisecond delay followed by a 400 millisecond acquisition time window. Inhibitor IC50 values are derived from non-linear regression analysis of concentration response curves. Ki values are then calculated from IC50 values using the Cheng-Prusoff equation using a previously determined […] of 8 μM for the QSY7-APP^swe-Eu substrate at BACE1.

The target of experiment [2] is purified human autoBACE-2 (Homo sapiens (Human), UniProt Q9Y5Z0). In words: BACE-2 Assay (BACE-HTRF assay). In kind it is biochemical. The following applies: Ki calculated from IC50 using the Cheng-Prusoff equation; QSY7-EISEVNLDAEFC-Eu-amide substrate, pH 5.0. Here is the method:
Inhibitor IC50s at purified human autoBACE-2 are determined in a time-resolved endpoint proteolysis assay that measures hydrolysis of the QSY7-[…]-Eu-amide FRET peptide substrate (BACE-HTRF assay). […] DMSO is present at 5% final concentration in the assay. Following laser excitation of sample wells at 320 nm, the fluorescence signal at 620 nm is collected for 400 ms following a 50 μs delay on a RUBYstar HTRF plate reader (BMG Labtechnologies). Raw RFU data is normalized to maximum (1.0 nM BACE/DMSO) and minimum (no enzyme/DMSO) RFU values. […] The Ki values are calculated from the IC50 using the Cheng-Prusoff equation.

Recombinant human soluble BACE1 catalytic domain, sequence (P56817 75-416): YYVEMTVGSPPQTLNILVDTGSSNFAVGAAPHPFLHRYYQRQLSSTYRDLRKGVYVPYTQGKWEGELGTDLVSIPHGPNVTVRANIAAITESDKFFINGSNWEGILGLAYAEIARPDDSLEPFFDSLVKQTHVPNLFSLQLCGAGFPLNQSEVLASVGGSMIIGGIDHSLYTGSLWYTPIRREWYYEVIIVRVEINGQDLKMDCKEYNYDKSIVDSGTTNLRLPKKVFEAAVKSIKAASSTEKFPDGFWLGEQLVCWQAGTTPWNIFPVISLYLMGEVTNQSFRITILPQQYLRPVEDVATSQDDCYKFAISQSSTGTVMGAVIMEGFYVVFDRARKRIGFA
purified human autoBACE-2, sequence (Q9Y5Z0 63-473 limits assumed): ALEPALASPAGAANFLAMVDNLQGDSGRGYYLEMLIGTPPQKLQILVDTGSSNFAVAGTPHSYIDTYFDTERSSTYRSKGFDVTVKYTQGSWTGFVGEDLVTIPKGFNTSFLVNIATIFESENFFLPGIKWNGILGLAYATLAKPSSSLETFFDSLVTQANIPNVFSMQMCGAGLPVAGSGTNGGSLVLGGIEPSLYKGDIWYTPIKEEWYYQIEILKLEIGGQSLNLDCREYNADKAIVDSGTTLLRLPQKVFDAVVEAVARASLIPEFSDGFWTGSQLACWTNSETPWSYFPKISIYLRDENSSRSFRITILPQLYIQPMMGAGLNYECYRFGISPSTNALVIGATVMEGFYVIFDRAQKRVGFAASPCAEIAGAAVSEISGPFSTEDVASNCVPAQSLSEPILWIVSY

As for `Cc1cncc(Oc2ccc(F)c([C@]34CO[C@@H](C5CC5)C[C@H]3C(=O)N(C)C(=N)N4)c2)n1` [Example 17, (4aR,6R,8aS)-6-cyclopropyl-8a-(2-fluoro-5-((6-methylpyrazin-2-yl)oxy)phenyl)-2-imino-3-methylhexahydro-1H-pyrano[3,4-d]pyrimidin-4(4aH)-one], the Ki in experiment [1] is 12 nM; in experiment [2], 102 nM.

For the compound `COC[C@@H]1C[C@H]2C(=O)N(C)C(=N)N[C@@]2(c2ccc(F)cc2F)CO1` [Example 47, (4aR,6S,8aS)-8a-(2,4-difluorophenyl)-2-imino-6-(methoxymethyl)-3-methylhexahydro-1H-pyrano[3,4-d]pyrimidin-4(4aH)-one], the figures for the Ki in experiment [1] and in experiment [2] were 5720 nM and 9300 nM, respectively.

Regarding `COc1cncc(Oc2ccc(F)c([C@]34CO[C@@H](C)C[C@H]3C(=O)N(C)C(=N)N4)c2)n1` [Example 65, (4aR,6S,8aS)-8a-(2-fluoro-5-((6-methoxypyrazin-2-yl)oxy)phenyl)-2-imino-3,6-dimethylhexahydro-1H-pyrano[3,4-d]pyrimidin-4(4aH)-one], the Ki in experiment [1] is 6.6 nM; in experiment [2], 15.8 nM.

Take `C[C@H]1C[C@H]2C(=O)N(C)C(=N)N[C@@]2(c2cc(OCC3CC3)ccc2F)CO1` [Example 23, (4aR,6S,8aS)-8a-(5-(cyclopropylmethoxy)-2-fluorophenyl)-2-imino-3,6-dimethylhexahydro-1H-pyrano[3,4-d]pyrimidin-4(4aH)-one]: the Ki is 13 nM in experiment [1] and 8 nM in experiment [2].

`Cc1cc([C@H]2C[C@H]3C(=O)N(C)C(=N)N[C@@]3(c3cc(F)ccc3F)CO2)on1` [Example 8, (4aR,6R,8aS)-8a-(2,5-difluorophenyl)-2-imino-3-methyl-6-(3-methylisoxazol-5-yl)hexahydro-1H-pyrano[3,4-d]pyrimidin-4(4aH)-one]: the Ki in experiment [1] was 131 nM; in experiment [2], 34 nM.

For the compound `COC[C@H]1C[C@H]2C(=O)N(C)C(=N)N[C@@]2(c2cc(OCC3CC3)c(F)cc2F)CO1` [Example 5, (4aR,6R,8aS)-8a-(5-(cyclopropylmethoxy)-2,4-difluorophenyl)-2-imino-6-(methoxymethyl)-3-methylhexahydro-1H-pyrano[3,4-d]pyrimidin-4(4aH)-one], the values for the Ki in experiment [1] and in experiment [2] were 68 nM and 82 nM, respectively.

Consider `C[C@H]1C[C@H]2C(=O)N(C)C(=N)N[C@@]2(c2cc(Oc3cc(F)cnc3F)ccc2F)CO1` [Example 80, (4aR,6S,8aS)-8a-(5-((2,5-difluoropyridin-3-yl)oxy)-2-fluorophenyl)-2-imino-3,6-dimethylhexahydro-1H-pyrano[3,4-d]pyrimidin-4(4aH)-one], for which the Ki is 8.5 nM in experiment [1] and 22.3 nM in experiment [2].

As for `C[C@H]1C[C@H]2C(=O)N(C)C(=N)N[C@@]2(c2cc(Oc3cncc(F)c3)ccc2F)CO1` [Example 78, (4aR,6S,8aS)-8a-(2-fluoro-5-((5-fluoropyridin-3-yl)oxy)phenyl)-2-imino-3,6-dimethylhexahydro-1H-pyrano[3,4-d]pyrimidin-4(4aH)-one], the Ki in experiment [1] was 20 nM; in experiment [2] it was 32.9 nM.

Consider `Cc1cncc(Oc2ccc(F)c([C@]34CO[C@@H](C)C[C@H]3C(=O)N(C)C(=N)N4)c2)n1` [Example 67, (4aR,6S,8aS)-8a-(2-fluoro-5-((6-methylpyrazin-2-yl)oxy)phenyl)-2-imino-3,6-dimethylhexahydro-1H-pyrano[3,4-d]pyrimidin-4(4aH)-one], for which the Ki in experiment [1] is 13.3 nM; in experiment [2], 25.2 nM.

As to `COC1CC(COc2ccc(F)c([C@]34CO[C@@H](C5CC5)C[C@H]3C(=O)N(C)C(=N)N4)c2)C1` (stereo partly drawn) [Example 53, (4aR,6R,8aS)-6-cyclopropyl-8a-(2-fluoro-5-((3-methoxycyclobutyl)methoxy)phenyl)-2-imino-3-methylhexahydro-1H-pyrano[3,4-d]pyrimidin-4(4aH)-one], the values for the Ki in experiment [1] and in experiment [2] were 180 nM and 117 nM, respectively.

Turning to `C[C@H]1C[C@H]2C(=O)N(C)C(=N)N[C@@]2(c2cc(Oc3cc(C#N)ccn3)ccc2F)CO1` [Example 21, 2-(4-fluoro-3-((4aR,6S,8aS)-2-imino-3,6-dimethyl-4-oxohexahydro-1H-pyrano[3,4-d]pyrimidin-8a(8H)-yl)phenoxy)isonicotinonitrile], the inhibition constant (Ki) in experiment [1] and in experiment [2] was 6 nM each time.

Take `C[C@H]1C[C@H]2C(=O)N(C)C(=N)N[C@@]2(c2cc(Oc3ncc(F)cc3F)ccc2F)CO1` [Example 36, (4aR,6S,8aS)-8a-(5-((3,5-difluoropyridin-2-yl)oxy)-2-fluorophenyl)-2-imino-3,6-dimethylhexahydro-1H-pyrano[3,4-d]pyrimidin-4(4aH)-one]: the Ki in experiment [1] was 8.9 nM; in experiment [2] it was 24 nM.

`CN1C(=N)N[C@@]2(c3cc(OCC4CC4)ccc3F)CO[C@@H](c3ccc(F)cc3)C[C@H]2C1=O` [Example 85, (4aR,6R,8aS)-8a-(5-(cyclopropylmethoxy)-2-fluorophenyl)-6-(4-fluorophenyl)-2-imino-3-methylhexahydro-1H-pyrano[3,4-d]pyrimidin-4(4aH)-one]: the inhibition constant Ki is 3.2 nM in experiment [1] and 0.76 nM in experiment [2].

As to `CN1C(=N)N[C@@]2(c3cc(Oc4cccc(-c5cocn5)c4)ccc3F)CO[C@@H](C3CC3)C[C@H]2C1=O` [Example 35], the Ki in experiment [1] was 13 nM; in experiment [2], 86 nM.

Take `C[C@H]1C[C@H]2C(=O)N(C)C(=N)N[C@@]2(c2cc(Oc3ncccc3F)c(F)cc2F)CO1` [Example 10, (4aR,6S,8aS)-8a-(2,4-difluoro-5-((3-fluoropyridin-2-yl)oxy)phenyl)-2-imino-3,6-dimethylhexahydro-1H-pyrano[3,4-d]pyrimidin-4(4aH)-one]: the values for the Ki in experiment [1] and in experiment [2] were 4 nM and 2 nM, respectively.

Regarding `CN1C(=N)N[C@@]2(c3cc(OCC45CC(C4)C5)ccc3F)CO[C@@H](C3CC3)C[C@H]2C1=O` [Example 54, (4aR,6R,8aS)-8a-(5-(bicyclo[1.1.1]pentan-1-ylmethoxy)-2-fluorophenyl)-6-cyclopropyl-2-imino-3-methylhexahydro-1H-pyrano[3,4-d]pyrimidin-4(4aH)-one], the Ki in experiment [1] was 21 nM; in experiment [2] it was 4 nM.

`CN1C(=N)N[C@@]2(c3cc(Oc4ccncc4)ccc3F)CO[C@@H](C3CC3)C[C@H]2C1=O` [Example 40, (4aR,6R,8aS)-6-cyclopropyl-8a-(2-fluoro-5-(pyridin-4-yloxy)phenyl)-2-imino-3-methylhexahydro-1H-pyrano[3,4-d]pyrimidin-4(4aH)-one]: the Ki is 54 nM in experiment [1] and 11 nM in experiment [2].

For the compound `Cc1nccc(Oc2ccc(F)c([C@]34CO[C@@H](C5CC5)C[C@H]3C(=O)N(C)C(=N)N4)c2)n1` [Example 22, (4aR,6R,8aS)-6-cyclopropyl-8a-(2-fluoro-5-((2-methylpyrimidin-4-yl)oxy)phenyl)-2-imino-3-methylhexahydro-1H-pyrano[3,4-d]pyrimidin-4(4aH)-one], the values for the Ki in experiment [1] and in experiment [2] were 57 nM and 182 nM, respectively.

As to “(4aR,6S,8aS)-8a-(5-((4-chloropyridin-3-yl)oxy)-2-fluorophenyl)-2-imino-3,6-dimethylhexahydro-1H-pyrano[3,4-d]pyrimidin-4(4aH)-one [Example 75]”, the Ki in experiment [1] is 58.2 nM; in experiment [2] it was 23.3 nM.

Consider `CN1C(=N)N[C@@]2(c3cc(OCC4CC4)ccc3F)COCC[C@H]2C1=O` [Example 88, (4aR,8aS)-8a-(5-(cyclopropylmethoxy)-2-fluorophenyl)-2-imino-3-methylhexahydro-1H-pyrano[3,4-d]pyrimidin-4(4aH)-one], for which the Ki was 44 nM in experiment [1] and 5.96 nM in experiment [2].

In the case of `CN1C(=N)N[C@@]2(c3cc(Oc4cc(-n5cccn5)ccn4)ccc3F)CO[C@@H](C3CC3)C[C@H]2C1=O` [Example 56, (4aR,6R,8aS)-8a-(5-((4-(1H-pyrazol-1-yl)pyridin-2-yl)oxy)-2-fluorophenyl)-6-cyclopropyl-2-imino-3-methylhexahydro-1H-pyrano[3,4-d]pyrimidin-4(4aH)-one], the Ki is 9 nM in experiment [1] and 51 nM in experiment [2].
